Results as given in patent US6385487B1, “Methods for electrokinetic delivery of medicaments” (Biophoretic Therapeutic Systems, LLC, priority 1996, dated 2002).

What was measured:
[1] = test system: mucocutaneous Herpes Simplex (Type I and Type II) eruptions; assay: Clinical study: iontophoretic application of antiviral agent to herpes lesions (Stage 1 treatment); format: in vivo, human; settings: for No response (count, Stage 1 treatment results) / Some response (count, Stage 1 treatment results): iontophoretic 10-15 minute application to lesion, 0.2 ma-0.6 ma, evaluated in 24 hours; for Major response (count, Stage 1 treatment results): iontophoretic 10-15 minute application, major response = resolution of pain in <6 hours and lesion crusted and healing within 24 hours
From the text: The inventor has conducted a clinical study using a prototype iontophoretic device in accordance with the present invention for the treatment of cold sores. The clinical response was promising. A second independent, qualified investigator, a board-certified Urologist, conducted a study using the present apparatus and method for treating male genital herpes lesions with encouraging results. Table 1 summarizes data (discussed below) supporting the claim to unexpected clinical benefits treating disease with this novel method. The method and medicament application device when used together for treating these common, embarrassing, and previously not easily-treatable ailments provide surprising advantages.
The embodiment of the device shown in FIG. 1 and described hereinabove is an improvement over the prototype used in the clinical study, which was a larger unit, not user-friendly, which required physically connecting wires to the patient's body which created anxiety, and could not be used without attending personnel. Notwithstanding design, the apparatus used in the clinical study summarized in Table 1 employed electronics similar to the apparatus described herein and was used to optimize the clinical performance of the embodiment 12 of the device described herein.
(§1) The clinical studies included patient volunteers with full informed consent who suffered from recurrent cold sores. […] The treatment incorporated an electrode saturated with Acyclovir® ointment (ZOVIRAX®) or IUDR (STOXIL®) ophthalmic drops as supplied by the manufacturer. Thus mounted Anodic electrode of the prototype system was used for a 10-15 minute application directly to the lesion with the average current setting of 0.2 ma-0.6 ma which was well tolerated by all patients.
(§2) The lesion was evaluated in 24 hours. In 92% of the iontophoretically treated cases (>70 lesions treated) a major response was noted. A major response was categorized by resolution of pain in <6 hours and lesion crusted and healing within 24 hours. The normal course of cold sores involves an average period of 10-12 days before resolution and healing occurs. The present apparatus and clinical method for treatment of mucocutaneous Herpes Simplex (Type I and Type II) eruptions presented herein have been described and performed with excellent results. This novel user-friendly apparatus in combination with the disclosed clinical treatment method presents a very effective new treatment for Herpes Simplex eruptions.

herpes lesions = assay: Control group: patients with concurrent herpes lesions, one treated iontophoretically, the other by repeated topical application of the same agent; format: in vivo, human; settings: for Major Response (count), Control lesion / No Response (count), Control lesion / Some Response (count), Control lesion: repeated unassisted topical application of the same antiviral agent; for Major Response (count), Treated lesion / No Response (count), Treated lesion / Some Response (count), Treated lesion: iontophoretically treated lesion, single 10-15 minute treatment; for Outcome of unassisted topically treated lesions: repeated topical application, compared with resolution in 24 hours; for Outcome of iontophoretically treated lesions: single 10-15 minute iontophoretic treatment, all treated lesions
Protocol: The study included a control situation wherein seven patients were found who had simultaneous concurrent herpes lesions at separate locations on their bodies. In each case, one lesion was treated with iontophoretic application of antiviral agent (Acyclovir® or IUDR) and the other lesion was treated in the standard method employed in the prior art comprising repeated topical application of the same antiviral agent.
as §1, §2

Compound | No response (count, Stage 1 treatment results) [1] | Some response (count, Stage 1 treatment results) [1] | Major response (count, Stage 1 treatment results) [1] | Major Response (count), Control lesion (herpes lesions) | No Response (count), Control lesion (herpes lesions) | Some Response (count), Control lesion (herpes lesions) | Major Response (count), Treated lesion (herpes lesions) | No Response (count), Treated lesion (herpes lesions) | Some Response (count), Treated lesion (herpes lesions) | Outcome of unassisted topically treated lesions (herpes lesions) | Outcome of iontophoretically treated lesions (herpes lesions)
Nc1nc2c(ncn2COCCO)c(=O)[nH]1 [ACYCLOVIR ®, 2-amino-1,9-dihydro-9-[(2-hydroxyethoxy)methyl]-6H-purin-6-one] | 1 | 3 | 42 | 0 | 1 | 0 | 1 | 0 | 0 | none of the unassisted topically treated lesions demonstrated a similar response | resolution in 24 hours
O=c1[nH]c(=O)n([C@H]2C[C@H](O)[C@@H](CO)O2)cc1I [IUDR, 5-iodo-2 deoxyuridine] | 1 | 1 | 26 | 0 | 5 | 2 | 7 | 0 | 0 | none of the unassisted topically treated lesions demonstrated a similar response | resolution in 24 hours
